Test system: reconstructed human skin produced according to Example 1
Assay: Evaluation of skin barrier function of reconstructed human skin with liquid surfactant (MTT, OECD Test Guideline 439)
Type: cell-based
Procedure: In order to confirm the skin barrier function of the reconstructed human skin produced according to the present invention, the skin barrier function was evaluated using the reconstructed human skin produced in the culture vessel having the inner wall coated with dopamine in Example 1. The skin barrier function was evaluated in a manner in which cell viability relative to an untreated control depending on the treatment time with 1% Triton X-100 was measured, and ET50 (Effective Time 50%), which is the time taken to reach the cell viability of 50%, was determined, according to the barrier evaluation method presented as a performance standard in OECD Test Guideline 439. […] The formazan dye thus formed was dissolved in 2 ml of 2-propanol, 200 μl thereof was placed in each of two wells of a 96-well plate, and optical density at a wavelength of 570 nm was measured using a plate reader, and each optical density of treated group was compared to those in untreated control, thereby calculating relative cell viability, and ET50 (Effective Time 50), which is the time taken to reach the cell viability of 50%, was determined.

Substance: Triton X-100
- relative cell viability (1% Triton X-100 for 2, 5, 8 and 20 hours, MTT relative to untreated control): decreased depending on the treatment time
- ET50 (Effective Time 50), time taken to reach the cell viability of 50% (200 μl of 1% Triton X-100 solution on upper surface, MTT, optical density at 570 nm relative to untreated control): about 4.5 hours

Source: patent US20230095689A1, “METHOD OF CULTURING RECONSTRUCTED HUMAN SKIN” (Korea University Research and Business Foundation, priority 2021, published 2023)
